Holding throughout (experiment): PME-1 inhibitors in HeLa proteome, late-stage follow-up, selectivity assay, cell lysate, gel-based competitive ABPP, fluorescence, powder samples (AID 463149);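 further: 0% = DMSO-treated band intensity and 100% = blank gel background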
Assay [1] relates to Anti-Target PREP. The settings on record: HeLa soluble proteome, FP-Rh fluorescence, measured here: Anti-Target PREP, stronger effect = higher value.
In assay [2] the target is Acylamino-acid-releasing enzyme (Homo sapiens) (UniProt P13798). The settings on record: HeLa soluble proteome, FP-Rh fluorescence, measured here: Anti-Target APEH, stronger effect = higher value.
Assay [3] concerns the target Protein phosphatase methylesterase 1 (Homo sapiens) (UniProt Q9Y570). As to conditions: HeLa soluble proteome, FP-Rh fluorescence, stronger effect = higher value.
Assay [4] deals with Anti-Target ABHD10. As to conditions: HeLa soluble proteome, FP-Rh fluorescence, stronger effect = higher value.
In assay [5] the test system is Anti-Target CES. As to conditions: HeLa soluble proteome, FP-Rh fluorescence, measured here: Anti-Target CES, stronger effect = higher value.
For assay [6], the target named is Fatty acid synthase (Homo sapiens) (UniProt P49327). As to conditions: HeLa soluble proteome, FP-Rh fluorescence, measured here: Anti-Target FAS, stronger effect = higher value.
Where [7] appears, read: measured here: Anti-Target ABHD10, at 1 µM.
Setting [8] is: measured here: Anti-Target ABHD10, at 20 µM.

These results are taken from PubChem BioAssay AID463149 (The Scripps Research Institute Molecular Screening Center, 2010).

Acylamino-acid-releasing enzyme (Homo sapiens), sequence (P13798 whole entry, looked up): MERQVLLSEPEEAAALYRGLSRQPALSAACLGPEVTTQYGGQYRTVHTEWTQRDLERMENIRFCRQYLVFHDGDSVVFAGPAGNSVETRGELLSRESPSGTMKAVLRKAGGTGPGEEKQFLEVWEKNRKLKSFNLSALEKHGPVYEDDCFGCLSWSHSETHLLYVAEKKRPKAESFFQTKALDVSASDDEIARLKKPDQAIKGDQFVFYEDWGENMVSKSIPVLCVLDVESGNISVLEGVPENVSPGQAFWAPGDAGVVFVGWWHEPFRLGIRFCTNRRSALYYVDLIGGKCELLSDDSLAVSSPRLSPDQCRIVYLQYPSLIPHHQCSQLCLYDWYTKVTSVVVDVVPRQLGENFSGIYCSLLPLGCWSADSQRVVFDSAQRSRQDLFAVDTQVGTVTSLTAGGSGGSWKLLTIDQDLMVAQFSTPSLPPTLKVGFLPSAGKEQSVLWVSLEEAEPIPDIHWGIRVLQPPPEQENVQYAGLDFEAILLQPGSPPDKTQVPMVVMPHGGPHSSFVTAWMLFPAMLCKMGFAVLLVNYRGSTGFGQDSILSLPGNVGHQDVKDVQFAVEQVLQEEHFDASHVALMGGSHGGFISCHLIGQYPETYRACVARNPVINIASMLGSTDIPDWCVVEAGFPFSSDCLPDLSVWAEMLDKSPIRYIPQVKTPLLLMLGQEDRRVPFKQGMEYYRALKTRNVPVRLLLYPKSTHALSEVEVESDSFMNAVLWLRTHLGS
Fatty acid synthase (Homo sapiens), sequence (P49327 whole entry, looked up): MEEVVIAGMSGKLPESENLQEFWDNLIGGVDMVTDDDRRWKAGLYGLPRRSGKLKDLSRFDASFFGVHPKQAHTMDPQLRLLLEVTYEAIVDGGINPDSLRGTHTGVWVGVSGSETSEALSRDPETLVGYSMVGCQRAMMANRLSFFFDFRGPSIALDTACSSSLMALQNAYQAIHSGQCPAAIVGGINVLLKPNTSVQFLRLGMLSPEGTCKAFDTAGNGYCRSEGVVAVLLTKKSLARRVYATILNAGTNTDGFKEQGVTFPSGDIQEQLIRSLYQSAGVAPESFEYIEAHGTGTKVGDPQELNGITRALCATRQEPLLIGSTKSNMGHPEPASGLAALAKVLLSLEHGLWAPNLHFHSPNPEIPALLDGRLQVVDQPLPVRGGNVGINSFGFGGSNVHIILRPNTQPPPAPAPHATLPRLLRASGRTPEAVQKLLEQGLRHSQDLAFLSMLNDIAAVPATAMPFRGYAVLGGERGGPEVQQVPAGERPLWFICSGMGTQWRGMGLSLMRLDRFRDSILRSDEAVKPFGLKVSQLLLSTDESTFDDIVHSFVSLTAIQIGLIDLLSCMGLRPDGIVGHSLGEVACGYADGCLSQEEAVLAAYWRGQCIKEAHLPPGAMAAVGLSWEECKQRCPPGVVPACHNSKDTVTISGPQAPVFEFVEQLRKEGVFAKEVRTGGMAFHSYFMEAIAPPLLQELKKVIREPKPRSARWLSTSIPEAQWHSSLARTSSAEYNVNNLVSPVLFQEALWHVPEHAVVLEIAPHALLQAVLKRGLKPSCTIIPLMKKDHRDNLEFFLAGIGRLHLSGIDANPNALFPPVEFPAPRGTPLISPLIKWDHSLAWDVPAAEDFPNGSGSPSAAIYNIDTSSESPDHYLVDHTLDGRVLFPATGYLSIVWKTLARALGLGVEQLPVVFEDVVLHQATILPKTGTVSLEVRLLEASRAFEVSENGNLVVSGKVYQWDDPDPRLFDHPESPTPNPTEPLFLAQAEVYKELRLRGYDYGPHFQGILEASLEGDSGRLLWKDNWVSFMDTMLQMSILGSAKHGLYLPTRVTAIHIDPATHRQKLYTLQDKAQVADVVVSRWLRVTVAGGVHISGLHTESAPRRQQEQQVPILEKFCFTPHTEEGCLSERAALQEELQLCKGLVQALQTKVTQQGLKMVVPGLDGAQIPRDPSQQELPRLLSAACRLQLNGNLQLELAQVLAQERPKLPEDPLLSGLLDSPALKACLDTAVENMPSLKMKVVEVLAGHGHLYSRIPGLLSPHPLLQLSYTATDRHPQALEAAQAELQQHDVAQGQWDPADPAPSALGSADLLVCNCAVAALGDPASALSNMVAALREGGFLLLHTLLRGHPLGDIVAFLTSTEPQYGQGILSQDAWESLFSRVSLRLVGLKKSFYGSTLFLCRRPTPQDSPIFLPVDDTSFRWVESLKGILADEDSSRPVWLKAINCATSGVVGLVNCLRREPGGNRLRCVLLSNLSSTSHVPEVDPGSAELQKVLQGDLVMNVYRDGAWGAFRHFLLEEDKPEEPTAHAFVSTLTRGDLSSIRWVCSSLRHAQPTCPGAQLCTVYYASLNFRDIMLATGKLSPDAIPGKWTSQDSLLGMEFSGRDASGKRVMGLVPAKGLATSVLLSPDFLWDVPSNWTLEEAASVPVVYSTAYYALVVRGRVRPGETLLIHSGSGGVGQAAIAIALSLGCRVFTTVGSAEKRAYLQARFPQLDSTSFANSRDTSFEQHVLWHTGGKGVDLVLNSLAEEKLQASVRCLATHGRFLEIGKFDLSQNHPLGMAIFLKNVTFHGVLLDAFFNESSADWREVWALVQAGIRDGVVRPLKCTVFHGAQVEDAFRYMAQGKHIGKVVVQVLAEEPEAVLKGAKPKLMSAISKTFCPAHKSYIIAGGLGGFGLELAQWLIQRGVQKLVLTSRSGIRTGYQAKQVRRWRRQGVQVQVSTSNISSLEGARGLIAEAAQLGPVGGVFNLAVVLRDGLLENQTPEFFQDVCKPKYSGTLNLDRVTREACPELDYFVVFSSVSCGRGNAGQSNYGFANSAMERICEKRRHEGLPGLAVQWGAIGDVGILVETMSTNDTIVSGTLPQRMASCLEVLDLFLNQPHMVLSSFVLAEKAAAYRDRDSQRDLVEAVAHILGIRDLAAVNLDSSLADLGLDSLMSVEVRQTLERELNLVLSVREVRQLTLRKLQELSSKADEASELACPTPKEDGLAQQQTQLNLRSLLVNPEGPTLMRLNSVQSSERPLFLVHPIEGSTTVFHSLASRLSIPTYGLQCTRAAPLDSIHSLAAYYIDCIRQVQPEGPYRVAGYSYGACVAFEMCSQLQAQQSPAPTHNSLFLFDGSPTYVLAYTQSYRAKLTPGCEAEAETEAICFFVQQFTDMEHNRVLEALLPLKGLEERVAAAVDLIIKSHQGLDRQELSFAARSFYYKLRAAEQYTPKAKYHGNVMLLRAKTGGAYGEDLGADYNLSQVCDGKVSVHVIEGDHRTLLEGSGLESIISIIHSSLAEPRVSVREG
Protein phosphatase methylesterase 1 (Homo sapiens), sequence (Q9Y570 whole entry, looked up): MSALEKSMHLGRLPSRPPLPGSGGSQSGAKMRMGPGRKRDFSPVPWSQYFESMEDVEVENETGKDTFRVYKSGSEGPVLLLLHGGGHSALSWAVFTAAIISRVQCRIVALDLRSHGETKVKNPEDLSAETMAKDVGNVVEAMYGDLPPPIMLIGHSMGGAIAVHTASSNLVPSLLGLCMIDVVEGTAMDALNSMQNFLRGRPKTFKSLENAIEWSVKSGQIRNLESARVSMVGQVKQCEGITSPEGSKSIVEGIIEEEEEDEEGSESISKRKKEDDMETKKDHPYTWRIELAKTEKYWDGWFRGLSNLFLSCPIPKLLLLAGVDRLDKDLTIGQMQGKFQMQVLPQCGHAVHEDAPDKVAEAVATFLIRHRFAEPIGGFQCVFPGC

As for `CC[C@@]1(c2ccccc2C)C(=O)N(C(=O)OC)N1C(=O)OC`, the inhibition – broadly, the share of the control response that was lost under treatment – in assay [1] (at 1 µM) came to 0%; in assay [1] (at 20 µM) it was 0%; in assay [2] (at 1 µM), 0%; in assay [2] (at 20 µM), 0%; in assay [3] (PME-1, inhibition, at 1 µM) it was 50%; in assay [3] (PME-1, inhibition, at 20 µM), 100%. The inhibition in assay [4] (setting [7]) was 0%; in assay [4] (setting [8]), 0%; in assay [5] (at 1 µM), > 50%; in assay [5] (at 20 µM) it was > 50%; in assay [6] (at 1 µM) it was 0%; in assay [6] (at 20 µM), 0%.

For the compound `CCOC(=O)N1C(=O)[C@](CC)(c2ccccc2)N1C(=O)OCC`, the inhibition in assay [1] (at 1 µM) is 0%; in assay [1] (at 20 µM), 0%; in assay [2] (at 1 µM) it was 0%; in assay [2] (at 20 µM), 0%; in assay [3] (PME-1, inhibition, at 1 µM), 0%; in assay [3] (PME-1, inhibition, at 20 µM), 100%. Further, the inhibition is 0% in assay [4] (setting [7]); 0% in assay [4] (setting [8]); > 50% in assay [5] (at 1 µM); > 50% in assay [5] (at 20 µM); 0% in assay [6] (at 1 µM); > 50% in assay [6] (at 20 µM).

As for `CCOC(=O)N1C(=O)[C@](c2ccc(Cl)cc2)(C(C)C)N1C(=O)OCC`, the inhibition in assay [1] (at 1 µM) was found to be 0%; in assay [1] (at 20 µM), 0%; in assay [2] (at 1 µM) it was 0%; in assay [2] (at 20 µM) it was 0%; in assay [3] (PME-1, inhibition, at 1 µM), 50%; in assay [3] (PME-1, inhibition, at 20 µM) it was 100%. The inhibition in assay [4] (setting [7]), in assay [4] (setting [8]), in assay [5] (at 1 µM), in assay [5] (at 20 µM), in assay [6] (at 1 µM) and in assay [6] (at 20 µM) was 0% each time.

With `COC(=O)N1C(=O)[C@](c2ccc(OC)cc2)(C(C)C)N1C(=O)OC`, the inhibition in assay [1] (at 1 µM) is 0%; in assay [1] (at 20 µM) it was 0%; in assay [2] (at 1 µM) it was 0%; in assay [2] (at 20 µM) it was 0%; in assay [3] (PME-1, inhibition, at 1 µM) it was 100%; in assay [3] (PME-1, inhibition, at 20 µM), 100%. In addition, the inhibition in assay [4] (setting [7]) was 0%; in assay [4] (setting [8]), 0%; in assay [5] (at 1 µM), 0%; in assay [5] (at 20 µM) it was 0%; in assay [6] (at 1 µM), 0%; in assay [6] (at 20 µM), > 50%.

Turning to `CC[C@@]1(c2ccccc2)C(=O)N(C(=O)OC)N1C(=O)OC`, the inhibition in assay [1] (at 1 µM) is 0%; in assay [1] (at 20 µM), > 50%; in assay [2] (at 1 µM), 0%; in assay [2] (at 20 µM), 0%; in assay [3] (PME-1, inhibition, at 1 µM) it was 0%; in assay [3] (PME-1, inhibition, at 20 µM), 100%. The inhibition in assay [4] (setting [7]) was 0%; in assay [4] (setting [8]), 50%; in assay [5] (at 1 µM), 0%; in assay [5] (at 20 µM), > 50%; in assay [6] (at 1 µM), 0%; in assay [6] (at 20 µM) it was 0%.

Consider `COC(=O)N1C(=O)[C@](c2ccccc2)(C(C)C)N1C(=O)OC`, for which the inhibition in assay [1] (at 1 µM) was 0%; in assay [1] (at 20 µM), 0%; in assay [2] (at 1 µM), 0%; in assay [2] (at 20 µM) it was 0%; in assay [3] (PME-1, inhibition, at 1 µM), 100%; in assay [3] (PME-1, inhibition, at 20 µM), 100%. For the same compound, the inhibition in assay [4] (setting [7]), in assay [4] (setting [8]), in assay [5] (at 1 µM), in assay [5] (at 20 µM), in assay [6] (at 1 µM) and in assay [6] (at 20 µM) was 0% in each case.

In the case of `CC[C@]1(c2ccccc2)C(=O)N(C(=O)OC)N1C(=O)OC`, the inhibition in assay [1] (at 1 µM) was 0%; in assay [1] (at 20 µM), 0%; in assay [2] (at 1 µM) it was 0%; in assay [2] (at 20 µM) it was 0%; in assay [3] (PME-1, inhibition, at 1 µM), 75%; in assay [3] (PME-1, inhibition, at 20 µM), 100%. The inhibition is 0% in assay [4] (setting [7]); 0% in assay [4] (setting [8]); > 50% in assay [5] (at 1 µM); > 50% in assay [5] (at 20 µM); 0% in assay [6] (at 1 µM); 0% in assay [6] (at 20 µM).

As to `CCOC(=O)N1C(=O)[C@@](CC)(c2ccccc2)N1C(=O)OCC`, the inhibition is 0% in assay [1] (at 1 µM); > 50% in assay [1] (at 20 µM); 0% in assay [2] (at 1 µM); 0% in assay [2] (at 20 µM); 0% in assay [3] (PME-1, inhibition, at 1 µM); 0% in assay [3] (PME-1, inhibition, at 20 µM). Further, the inhibition in assay [4] (setting [7]) was 0%; in assay [4] (setting [8]), 50%; in assay [5] (at 1 µM) it was 0%; in assay [5] (at 20 µM) it was > 50%; in assay [6] (at 1 µM) it was 0%; in assay [6] (at 20 µM) it was 0%.

For the compound `COC(=O)N1C(=O)[C@@](CC(C)C)(c2ccccc2)N1C(=O)OC`, the inhibition is 0% in assay [1] (at 1 µM); 0% in assay [1] (at 20 µM); 0% in assay [2] (at 1 µM); > 50% in assay [2] (at 20 µM); 100% in assay [3] (PME-1, inhibition, at 1 µM); 100% in assay [3] (PME-1, inhibition, at 20 µM). The inhibition in assay [4] (setting [7]) was 0%; in assay [4] (setting [8]), 0%; in assay [5] (at 1 µM), > 50%; in assay [5] (at 20 µM), > 50%; in assay [6] (at 1 µM), 0%; in assay [6] (at 20 µM), > 50%.

For the compound `COC(=O)N1C(=O)[C@](c2ccccc2)(C2CCCC2)N1C(=O)OC`, the inhibition in assay [1] (at 1 µM) is 0%; in assay [1] (at 20 µM) it was 0%; in assay [2] (at 1 µM), 0%; in assay [2] (at 20 µM) it was > 50%; in assay [3] (PME-1, at 0.1 µM), 100%; in assay [3] (PME-1, inhibition, at 1 µM), 100%. Besides, the inhibition worked out at 100% in assay [3] (PME-1, inhibition, at 20 µM); 0% in assay [4] (setting [7]); 0% in assay [4] (setting [8]); 0% in assay [5] (at 1 µM); 0% in assay [5] (at 20 µM); 0% in assay [6] (at 1 µM). Also, the inhibition in assay [6] (at 20 µM) was > 50%.

As to `COC(=O)N1C(=O)[C@](c2ccccc2)(C2CCCCC2)N1C(=O)OC`, the inhibition in assay [1] (at 1 µM) was determined as 0%; in assay [1] (at 20 µM) it was 0%; in assay [2] (at 1 µM) it was 0%; in assay [2] (at 20 µM), 0%; in assay [3] (PME-1, at 0.1 µM), 90%; in assay [3] (PME-1, inhibition, at 1 µM), 100%. The inhibition in assay [3] (PME-1, inhibition, at 20 µM) came to 100%; in assay [4] (setting [7]) it was 0%; in assay [4] (setting [8]), 0%; in assay [5] (at 1 µM), 0%; in assay [5] (at 20 µM) it was 0%; in assay [6] (at 1 µM) it was 0%. The inhibition in assay [6] (at 20 µM) is > 50%.

On to `COC(=O)N1C(=O)[C@](CC(C)C)(c2ccccc2)N1C(=O)OC`, for which the inhibition in assay [1] (at 1 µM) is 0%; in assay [1] (at 20 µM), 0%; in assay [2] (at 1 µM), 0%; in assay [2] (at 20 µM), > 50%; in assay [3] (PME-1, at 0.1 µM), 100%; in assay [3] (PME-1, inhibition, at 1 µM), 100%. The inhibition is 100% in assay [3] (PME-1, inhibition, at 20 µM); 0% in assay [4] (setting [7]); 0% in assay [4] (setting [8]); > 50% in assay [5] (at 1 µM); > 50% in assay [5] (at 20 µM); > 50% in assay [6] (at 1 µM). For the same compound, the inhibition in assay [6] (at 20 µM) is > 50%.

As to `CC[C@@]1(c2cccc(C)c2)C(=O)N(C(=O)OC)N1C(=O)OC`, the inhibition in assay [1] (at 1 µM) is 0%; in assay [1] (at 20 µM), > 50%; in assay [2] (at 1 µM), 0%; in assay [2] (at 20 µM), 0%; in assay [3] (PME-1, inhibition, at 1 µM) it was 0%; in assay [3] (PME-1, inhibition, at 20 µM), 100%. Moreover, the inhibition is 0% in assay [4] (setting [7]); 50% in assay [4] (setting [8]); > 50% in assay [5] (at 1 µM); > 50% in assay [5] (at 20 µM); 0% in assay [6] (at 1 µM); > 50% in assay [6] (at 20 µM).

Take `CC[C@]1(c2ccccc2C)C(=O)N(C(=O)OC)N1C(=O)OC`: the inhibition in assay [1] (at 1 µM) came to 0%; in assay [1] (at 20 µM), 0%; in assay [2] (at 1 µM), 0%; in assay [2] (at 20 µM), 0%; in assay [3] (PME-1, inhibition, at 1 µM) it was 0%; in assay [3] (PME-1, inhibition, at 20 µM), 100%. Also, the inhibition was 0% in assay [4] (setting [7]); 0% in assay [4] (setting [8]); 0% in assay [5] (at 1 µM); > 50% in assay [5] (at 20 µM); 0% in assay [6] (at 1 µM); 0% in assay [6] (at 20 µM).

Consider `COC(=O)N1C(=O)[C@](Cc2ccccc2)(c2ccccc2)N1C(=O)OC`, for which the inhibition in assay [1] (at 1 µM) was 0%; in assay [1] (at 20 µM), 0%; in assay [2] (at 1 µM) it was 0%; in assay [2] (at 20 µM), > 50%; in assay [3] (PME-1, inhibition, at 1 µM) it was 75%; in assay [3] (PME-1, inhibition, at 20 µM), 100%. Further, the inhibition in assay [4] (setting [7]) was 0%; in assay [4] (setting [8]), 0%; in assay [5] (at 1 µM), > 50%; in assay [5] (at 20 µM), > 50%; in assay [6] (at 1 µM), 0%; in assay [6] (at 20 µM) it was > 50%.

On to `CCOC(=O)N1C(=O)[C@@](c2ccc(Cl)cc2)(C(C)C)N1C(=O)OCC`, for which the inhibition came to 0% in assay [1] (at 1 µM); 0% in assay [1] (at 20 µM); 0% in assay [2] (at 1 µM); 0% in assay [2] (at 20 µM); 0% in assay [3] (PME-1, inhibition, at 1 µM); 0% in assay [3] (PME-1, inhibition, at 20 µM). For the same compound, the inhibition in assay [4] (setting [7]), in assay [4] (setting [8]), in assay [5] (at 1 µM), in assay [5] (at 20 µM), in assay [6] (at 1 µM) and in assay [6] (at 20 µM) was 0% in each case.
